This note sets out measurements from patent publication US5412117A, “Benzopyran derivatives” (Chugai Seiyaku Kabushiki Kaisha, priority 1990, dated 1995).

Assay [1] deals with histamine-induced increase in respiratory tract inner pressure. The assay is described as follows: Study on Antiasthmatic Activity: inhibition of histamine-induced increase in respiratory tract inner pressure. Type of assay: in vivo, male Hartley guinea pig. The conditions noted are these: Cavia porcellus; dose for 50% inhibition of histamine-induced increase in respiratory tract inner pressure; intraduodenal, anesthetized guinea pig. The method, then:
Study on Antiasthmatic Activity
A mid-line incision was made in the neck of a male Hartley guinea pig (600 to 800 g, CRJ) under anesthesia with pentobarbitar (40 mg/kg, i.p.). The trachea, the left […], and the left carotid artery were exposed, and a cannula was inserted into each of them. The inner pressure of the respiratory tract was measured while applying artificial respiration through the tracheal cannula. The blood pressure was measured through the arterial cannula, and the heart rate was determined from the pulse. Pentobarbital for anesthesia maintenance was continuously administered through the venous cannula. A mid-line incision was made on the abdomen to expose the duodenum, and a cannula for intraduodenal administration was inserted thereinto. After the postoperative convalescence of 30 to 60 minutes, histamine (5 to 10 μg/kg) was intravenously administered every 10 minutes. After it was confirmed that a respiratory tract inner pressure rise reaction was stably obtained, a test compound in the form of a 0.3% CMC suspension was intraduodenally administered. The histamine dose was so selected that the respiratory tract inner pressure might rise to 20 to 40 cmH2 O after every lntravenous administration. After administration of the test compound, intravenous administration of histamine at 10 minutes intervals was continued. The histamine-induced increase in respiratory tract inner pressure after the administration of the test compound was compared with that before the administration.

Assay [2] relates to Guinea Pig Tracheal Muscle. Kind of assay: Test with Guinea Pig Tracheal Muscle: relaxation of spontaneous tension. Type of assay: cell-based, male Hartley guinea pig. The conditions noted are these: Cavia porcellus; concentration exhibiting 50% relaxing activity, relaxing activity of 1 mM aminophylline taken as 100%, 37° C. How it is done: Test with Guinea Pig Tracheal Muscle
The trachea was excised from a male Hartley guinea pig (450 to 550 g) to make chain preparations. The preparation was suspended in a bath containing the same Krebs-Henseleit solution as used in Test Example 1 (37° C.) through which a mixed gas of 95% O2 and 5% CO2 was bubbled. Isometric contractions of the preparation were recorded under a tension of 1 g.
The same test compounds as used in Test Example 1 were used.

The test system of assay [3] is Excised Aorta of Rat. Kind of assay: Test with Excised Aorta of Rat: relaxation of lasting contraction following KCl (30 mM) addition. Type of assay: cell-based, male Sprague Dawley rat. The conditions noted are these: rat thoracic aorta rings, 30 mM KCl contraction, 37° C. The method, then:
Test with Excised Aorta of Rat
The thoracic aorta was excised from a male Sprague Dawley rat (450 to 600 g) and cut into 2 mm wide ring preparations. Each preparation was suspended in 10 ml of an organ bath containing a Krebs-Henseleit solution (NaCl:119; KCl:4.8; CaCl2 ·2H2 O: 2.53; KH2 PO4 :1.2; MgSO4 ·7H2 O: 1.2; NaHCO3 : 24.8; glucose: 10 (mM); 37° C.) under a tension of 2 g, and a mixed gas of 95% O2 and 5% CO2 was bubbled therethrough. Isometric contractions of the preparation were recorded by means of an FD pick-up. […] The activity of a test compound to relax a lasting contraction following the KCl addition was evaluated by obtaining a 50% inhibitory concentration (IC50).
The compounds of the present invention obtained in the foregoing Examples and, for comparison, Cromakalim were used as test compounds.

As a reminder, the ED50 is the dose that gives a 50% effect, or the effect in half of the subjects. The IC50 is the midpoint of a concentration-inhibition curve. High values mean lower potency, low ones higher potency. Molecule `CC1(C)Oc2ccc(C#N)cc2[C@@H](N2CCCC2=O)[C@@H]1O` (relative stereo) [Cromakalim, reference compound] had an ED50 in assay [1] of 1 to 3 mg/kg. Moreover, the values for the IC50 in assay [2] and in assay [3] were 790 nM and 180 nM, respectively.
As for `CNC(=S)C1=CC(C)(C)Oc2ccc(C#N)cc21` [Compound 3, N-Methyl-6-cyano-2,2-dimethyl-2H-1-benzopyran-4-carbothioamide], the IC50 in assay [2] was found to be 200 nM; in assay [3], 33 nM.
Take `CNC(=S)C1=CC(C)(C)Oc2ccc([N+](=O)[O-])cc21` [Compound 8, N,2,2-Trimethyl-6-nitro-2H-1-benzopyran-4-carbothioamide]: the 50% effective dose (ED50) in assay [1] fell in the range of 0.1 to 0.3 mg/kg. For the same molecule, the 50% inhibitory concentration (IC50) was determined as 6.3 nM in assay [2] and 1.4 nM in assay [3].
Consider `CNC(=O)C1=CC(C)(C)Oc2ccc([N+](=O)[O-])cc21` [Compound 10, N-Methyl-6-nitro-2,2-dimethyl-2H-1-benzopyran-4-carboxamide], for which the ED50 in assay [1] was below 0.1 mg/kg. For the same molecule, the IC50 in assay [2] was found to be 33 nM; in assay [3] it was 11 nM.
Molecule `CN(C)C(=NC#N)C1=CC(C)(C)Oc2ccc([N+](=O)[O-])cc21` [Compound 11, N^2 -Cyano-N^1,N^1-dimethyl-6-nitro-2,2-dimethyl-2H-1-benzopyran-4-carboxamidine] gave an ED50 in assay [1] of 0.1 mg/kg. Moreover, the values for the IC50 in assay [2] and in assay [3] were 54 nM and above 30000 nM, respectively.
Turning to `CN=C(NC#N)C1=CC(C)(C)Oc2ccc([N+](=O)[O-])cc21` [Compound 12, N-Cyano-N'-methyl-6-nitro-2,2-dimethyl-2H-1-benzopyran-4-carboxamidine], the ED50 in assay [1] lay within 0.1 to 0.3 mg/kg. Further, the IC50 is 23 nM in assay [2] and 11 nM in assay [3].
For `CNC(=O)C1CC(C)(C)Oc2ccc([N+](=O)[O-])cc21` (stereo not shown) [Compound 22, N-Methyl-3,4-dihydro-6-nitro-2,2-dimethyl-2H-1-benzopyran-4-carboxamide] the same measures were below 0.3 mg/kg, 36 nM and 14 nM.
For `CCC1(C)C=C(C(=S)NC)c2cc([N+](=O)[O-])ccc2O1` (stereo not shown) [Compound 90], the IC50 in assay [2] was 2.9 nM; in assay [3], 0.18 nM.
`CNC(=S)C1=CC2(CCCCC2)Oc2ccc([N+](=O)[O-])cc21` [Compound 91]: the results for the IC50 in assay [2] and in assay [3] were 38 nM and 0.14 nM, respectively.
For `CNC(=S)C1=CC(C)(C)Oc2ccc(C(F)(F)F)cc21` [Compound 104], in that order: 37 nM and 2.6 nM.
For the molecule `CCNC(=S)C1=CC(C)(C)Oc2ccc([N+](=O)[O-])cc21` [Compound 113], the 50% inhibitory concentration (IC50) in assay [2] came to 11 nM; in assay [3] it was 3.7 nM.
Regarding `CCCNC(=S)C1=CC(C)(C)Oc2ccc([N+](=O)[O-])cc21` [Compound 115], the IC50 amounted to 41 nM in assay [2] and 3 nM in assay [3].
Regarding `CNC(=S)C1=CC2(CCCC2)Oc2ccc([N+](=O)[O-])cc21` [Compound 128], the IC50 in assay [2] worked out at 50 nM; in assay [3], 0.037 nM.
With `CNC(=S)C1=CC(C)(C)Oc2ccc(Br)cc21` [Compound 134], the IC50 is 75 nM in assay [2] and 9.3 nM in assay [3].
For `CC1(C)C=C(C(=S)NC2CC2)c2cc([N+](=O)[O-])ccc2O1` [Compound 137] the same measures were 22 nM and 3.7 nM.
For the molecule `CCCNC(=O)C1=CC(C)(C)Oc2ccc([N+](=O)[O-])cc21` [Compound 146], the IC50 was 56 nM in assay [2] and 5.7 nM in assay [3].
`CCC1(C)C=C(C(=O)NC)c2cc([N+](=O)[O-])ccc2O1` (stereo not shown) [Compound 181] showed an ED50 in assay [1] of 0.1 to 0.3 mg/kg. In addition, the IC50 in assay [2] was found to be 16 nM; in assay [3] it was 2.1 nM.
With `CNC(=O)C1=CC2(CCCCC2)Oc2ccc([N+](=O)[O-])cc21` [Compound 186], the IC50 in assay [2] was determined as 11 nM; in assay [3] it was 0.042 nM.
With `CCN(CC)C(=O)C1=CC(C)(C)Oc2ccc([N+](=O)[O-])cc21` [Compound 193], the ED50 in assay [1] was below 0.3 mg/kg. Besides, the concentration for half-maximal inhibition (IC50) was 57 nM in assay [2] and 6000 nM in assay [3].
